In patent publication EP3628672A1 (priority 2018, dated 2020):
Like-named read-outs stand apart in the source and are kept apart here.

Tests used:
[1] = molecular target: T1, purified LasB protein from P. aeruginosa (Pseudomonas aeruginosa, UniProt P14756); assay: Fluorometric assay to determine Ki (Abz-Ala-Gly-Leu-Ala-p-Nitro-Benzyl-Amide substrate); format: biochemical
T1 construct: purchased Merck or Charles River Laboratories
Protocol: (§1) Experiments were therefore conducted (1) to measure the potency of inhibition of compounds of the invention against purified Pseudomonas aeruginosa LasB enzyme and also experiments were conducted (2) to measure the ability of compounds of the invention to inhibit LasB-catalysed elastin degradation. The first assay uses a commercial fluorescent synthetic peptide and purified LasB enzyme. The LasB hydrolysis kinetics are measured allowing the determination of the IC50 and Ki of the inhibitors; the second is a more physiological assay using dialysed Pseudomonas aeruginosa supernatant as source of enzyme, plus its natural substrate Elastin. It is an "end point assay" that determines the percentage of LasB inhibition by each compound for one particular time point and inhibitor concentration. Technical details are described below:
This assay uses commercially available substrate (Abz-Ala-Gly-Leu-Ala-p-Nitro-Benzyl-Amide (Ex: 340 nm, Em: 415 nm) from Peptide International) and purified LasB protein from P. aeruginosa (provided by Merck or Charles River Laboratories). It is performed to determine LasB elastase activity and assess compound inhibition in 96-well plate format. All compounds of Formula (I) were assessed using the method described below.
Method: 10 to 140 ng/ml purified LasB is incubated with 250 µM Abz-Ala-Gly-Leu-Ala-p-Nitro-Benzyl-Amide in 50 mM Tris-HCl pH 7.4, 2.5 mM CaCl2, 0.01% of Triton X100 at 37°C. LasB activity (corresponding to fluorescence emission induced by substrate hydrolysis) is measured over 30 min at 37°C with a fluorescence plate reader such as the Perkin Elmer Envision or similar. Different range of inhibitor concentrations are routinely assessed depending of inhibitor potency from 0.0016 to 200 µM (2-fold dilutions series) in order to determine IC50.
The equation used to calculate the Ki from IC50 is: Ki = IC50 / (1+([S]/Km)) where [S] = 250 µM and Km = 214 µM.

[2] = molecular target: T2, LasB (Pseudomonas aeruginosa, UniProt P14756); assay: Elastin assay to determine % inhibition (Elastin Congo-Red, dialysed culture supernatant); format: biochemical, P. aeruginosa PAO1; details: read-out: Elastin hydrolysis % inhibition @ 50 / 25 µM inhibitor concentration
T2 construct: uses as source of enzyme dialysed supernatant from P. aeruginosa PAO1; endogenous in cells; host or cells: P. aeruginosa PAO1 culture supernatant, filtered and dialysed
T2 sequence (P14756 198-498): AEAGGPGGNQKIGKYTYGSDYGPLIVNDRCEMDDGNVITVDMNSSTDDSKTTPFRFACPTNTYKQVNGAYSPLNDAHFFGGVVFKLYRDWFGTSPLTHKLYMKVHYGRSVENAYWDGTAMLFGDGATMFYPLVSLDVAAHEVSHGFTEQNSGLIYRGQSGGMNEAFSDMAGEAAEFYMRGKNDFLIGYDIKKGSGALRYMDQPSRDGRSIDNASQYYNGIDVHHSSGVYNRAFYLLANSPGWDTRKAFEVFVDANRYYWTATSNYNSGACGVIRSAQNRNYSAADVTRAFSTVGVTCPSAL
Protocol: as §1
The Elastin assay uses as source of enzyme dialysed supernatant from P. aeruginosa PAO1 and the Elastin Congo-Red as substrate. The natural LasB substrate, elastin, is complexed with the congo-red dye (Elastin Congo-Red, ECR). The elastolysis activity from the culture supernatant will degrade elastin and release the congo-red dye into the supernatant. This red dye release can be measured with a spectrophotometer.
Method: To determine LasB elastase activity and assess compound inhibition, an overnight culture of P. aeruginosa strain PAO1 is diluted in LB medium. After reaching an OD600nm of 0.6, this culture is diluted and incubated for additional 18-24 hours in a shaking incubator. Culture supernatants are recovered by centrifugation and filtrated through a […] filter. These supernatants are dialysed (filtration molecules < 20kDa) into a 50 mM Tris-HCl pH 7.4, 2.5 mM CaCl2 solution at 4°C under agitation for 24 hours. Supernatant dialysed is then mixed volume/volume with the ECR suspension (20 mg/mL of ECR in 100 mM Tris-HCl pH 7.4 buffer supplemented with 1 mM CaCl2) supplemented with Triton X100 (final concentration of 0.01%) in presence of DMSO (positive control) and/or different concentrations of compound (routinely 50 to 1.56 µM). As a negative control, the dialysed supernatant is replaced by Tris-HCl solution (50 mM Tris-HCl pH 7.4, 2.5 mM CaCl2). The mixed reaction is then incubated overnight in a 37°C shaking incubator. The reaction supernatant is recovered by centrifugation and the release of congo-red is measured by its absorbance at 495 nm (OD495nm).
Percentage inhibition is determined using the following equation: ((OD495nmvalue of positive control−OD495nmvalue of negative control)−(OD495nmvalue of treated supernatant−OD495nmvalue of positive control))/(OD495nmvalue of positive control−OD495nmvalue of negative control) × 100. [formula]

T1 sequence (P14756 198-498): as above

Compound | Ki [1] [µM] | inhibition at 25 µM [2] [%] | Ki ([1]; Ki calculated from IC50, [S] = 250 µM, Km = 214 µM, 37°C, pH 7.4) [µM]
CN1CCN(C(=O)CN2CCN(c3ccc(-c4csc(CNC(=O)C5(CC(=O)O)Cc6ccccc6C5)n4)cc3)CC2)CC1 [Example 36, 2-[2-[[4-[4-[4-[2-(4-methylpiperazin-1-yl)-2-oxo-ethyl]piperazin-1-yl]phenyl]thiazol-2-yl]methylcarbamoyl]indan-2-yl]acetic acid] | < 0.05 | > 75 | –
CN(C)CC#Cc1ccc(-c2csc(CNC(=O)C3(CC(=O)O)Cc4ccccc4C3)n2)cc1 [Example 37, 2-[2-[[4-[4-[3-(dimethylamino)prop-1-ynyl]phenyl]thiazol-2-yl]methylcarbamoyl]indan-2-yl]acetic acid] | 0.05 to 0.2 | 60 to 75 | –
CN1CCN(C(=O)COc2ccc(-c3csc(CNC(=O)C4(CC(=O)O)Cc5ccccc5C4)n3)cn2)CC1 [Example 38, 2-[2-[[4-[6-[2-(4-methylpiperazin-1-yl)-2-oxo-ethoxy]-3-pyridyl]thiazol-2-yl]methylcarbamoyl]indan-2-yl]acetic acid] | 0.05 to 0.2 | 60 to 75 | –
CN(C)CC(=O)Nc1ccc(-c2csc(CNC(=O)C3(CC(=O)O)Cc4ccccc4C3)n2)cc1 [Example 39, 2-[2-[[4-[4-[[2-(dimethylamino)acetyl]amino]phenyl]thiazol-2-yl]methylcarbamoyl]indan-2-yl]acetic acid] | 0.05 to 0.2 | 60 to 75 | –
CN1CCC(C(=O)Nc2ccc(-c3csc(CNC(=O)C4(CC(=O)O)Cc5ccccc5C4)n3)cc2)CC1 [Example 43, 2-[2-[[4-[4-[(1-methylpiperidine-4-carbonyl)amino]phenyl]thiazol-2-yl]methylcarbamoyl]indan-2-yl]acetic acid] | 0.2 to 10 | 60 to 75 | –
CN1CCN(C(=O)Nc2ccc(-c3csc(CNC(=O)C4(CC(=O)O)Cc5ccccc5C4)n3)cc2)CC1 [Example 44, 2-[2-[[4-[4-[(4-methylpiperazine-1-carbonyl)amino]phenyl]thiazol-2-yl]methylcarbamoyl]indan-2-yl]acetic acid] | 0.05 to 0.2 | 60 to 75 | –
CN1CCN(CC(=O)Nc2ccc(-c3csc(CNC(=O)C4(CC(=O)O)Cc5ccccc5C4)n3)cc2)CC1 [Example 45, 2-[2-[[4-[4-[[2-(4-methylpiperazin-1-yl)acetyl]amino]phenyl]thiazol-2-yl]methylcarbamoyl]indan-2-yl]acetic acid] | 0.05 to 0.2 | 60 to 75 | –
CN1CCN(C(=O)COc2ccc(-c3csc(CNC(=O)C4(CC(=O)O)Cc5ccccc5C4)n3)cc2)CC1 [Example 46, 2-[2-[[4-[4-[2-(4-methylpiperazin-1-yl)-2-oxo-ethoxy]phenyl]thiazol-2-yl]methylcarbamoyl]indan-2-yl]acetic acid] | 0.05 to 0.2 | > 75 | –
C[N+]1(C)CCN(C(=O)COc2ccc(-c3csc(CNC(=O)C4(CC(=O)[O-])Cc5ccccc5C4)n3)cc2)CC1 [Example 47, 2-[2-[[4-[4-[2-(4,4-dimethylpiperazin-4-ium-1-yl)-2-oxo-ethoxy]phenyl]thiazol-2-yl]methylcarbamoyl]indan-2-yl]acetate] | 0.2 to 10 | 60 to 75 | –
O=C(O)CC1(C(=O)NCc2nc(-c3ccc(OCCN4CCOCC4)cc3)cs2)Cc2ccccc2C1 [Example 49, 2-[2-[[4-[4-(2-morpholinoethoxy)phenyl]thiazol-2-yl]methylcarbamoyl]indan-2-yl]acetic acid] | 0.05 to 0.2 | 60 to 75 | –
C[N+]1(CCOc2ccc(-c3csc(CNC(=O)C4(CC(=O)[O-])Cc5ccccc5C4)n3)cc2)CCOCC1 [Example 50, 2-[2-[[4-[4-[2-(4-methylmorpholin-4-ium-4-yl)ethoxy]phenyl]thiazol-2-yl]methylcarbamoyl]indan-2-yl]acetate] | 0.2 to 10 | 60 to 75 | –
C[n+]1ccc(COc2ccc(-c3csc(CNC(=O)C4(CC(=O)[O-])Cc5ccccc5C4)n3)cc2)cc1 [Example 51, 2-[2-[[4-[4-[(1-methylpyridin-1-ium-4-yl)methoxy]phenyl]thiazol-2-yl]methylcarbamoyl]indan-2-yl]acetate] | 0.05 to 0.2 | 60 to 75 | –
CN1CCN(C(=O)COc2cccc(-c3csc(CNC(=O)C4(CC(=O)O)Cc5ccccc5C4)n3)c2)CC1 [Example 54, 2-[2-[[4-[3-[2-(4-methylpiperazin-1-yl)-2-oxo-ethoxy]phenyl]thiazol-2-yl]methylcarbamoyl]indan-2-yl]acetic acid] | – | 60 to 75 | 0.2 to 10
O=C(O)CC1(C(=O)NCc2nc(-c3ccc(OCCCN4CCOCC4)cc3)cs2)Cc2ccccc2C1 [Example 55, 2-[2-[[4-[4-(3-morpholinopropoxy)phenyl]thiazol-2-yl]methylcarbamoyl]indan-2-yl]acetic acid] | 0.05 to 0.2 | 60 to 75 | –
C[N+]1(CCCOc2ccc(-c3csc(CNC(=O)C4(CC(=O)[O-])Cc5ccccc5C4)n3)cc2)CCOCC1 [Example 56, 2-[2-[[4-[4-[3-(4-methylmorpholin-4-ium-4-yl)propoxy]phenyl]thiazol-2-yl]methylcarbarmoyl]indan-2-yl]acetate] | 0.05 to 0.2 | 60 to 75 | –
CN1CCN(CCCOc2ccc(-c3csc(CNC(=O)C4(CC(=O)O)Cc5ccccc5C4)n3)cc2)CC1 [Example 57, 2-[2-[[4-[4-[3-(4-methylpiperazin-1-yl)propoxy]phenyl]thiazol-2-yl]methylcarbamoyl]indan-2-yl]acetic acid] | 0.05 to 0.2 | 60 to 75 | –
O=C(O)CC1(C(=O)NCc2nc(-c3ccc(OCCCN4CCCC4)cc3)cs2)Cc2ccccc2C1 [Example 58, 2-[2-[[4-[4-(3-pyrrolidin-1-ylpropoxy)phenyl]thiazol-2-yl]methylcarbamoyl]indan-2-yl]acetic acid] | 0.05 to 0.2 | 60 to 75 | –
O=C([O-])CC1(C(=O)NCc2nc(-c3ccc(OCCC[n+]4ccccc4)cc3)cs2)Cc2ccccc2C1 [Example 59, 2-[2-[[4-[4-(3-pyridm-1-ium-1-ylpropoxy)phenyl]thiazol-2-yl]methylcarbamoyl]indan-2-yl]acetate] | 0.05 to 0.2 | 60 to 75 | –
CS(=O)(=O)c1cc(-c2csc(CNC(=O)C3(CC(=O)O)Cc4ccccc4C3)n2)ccc1OCCCN1CCOCC1 [Example 60, 2-[2-[[4-[3-methylsulfonyl-4-(3-morpholinopropoxy)phenyl]thiazol-2-yl]methylcarbamoyl]indan-2-yl]acetic acid] | < 0.05 | 60 to 75 | –
C[N+]1(CCCOc2ccc(-c3csc(CNC(=O)C4(CC(=O)[O-])Cc5ccccc5C4)n3)cc2S(C)(=O)=O)CCOCC1 [Example 61, 2-[2-[[4-[4-[3-(4-methylmorpholin-4-ium-4-yl)propoxy]-3-methylsulfonyl-phenyl]thiazol-2-yl]methylcarbamoyl]indan-2-yl]acetate] | 0.05 to 0.2 | 60 to 75 | –
C[N+]1(CCCOc2ccc(-c3csc(CNC(=O)C4(CC(=O)[O-])Cc5cc(F)c(F)cc5C4)n3)cc2S(C)(=O)=O)CCOCC1 [Example 62, 2-[5,6-difluoro-2-[[4-[4-[3-(4-methylmorpholin-4-ium-4-yl)propoxy]-3-methylsulfonyl-phenyl]thiazol-2-yl]methylcarbamoyl]indan-2-yl]acetate] | 0.05 to 0.2 | 60 to 75 | –
